Source: patent publication US20220281831A1, “FUSED-GLUTARIMIDE CRBN LIGANDS AND USES THEREOF” (Kymera Therapeutics, Inc., priority 2019, published 2022)

Assays:
[1] = molecular target: His-tagged CRBN-DDB1 complex (Homo sapiens, UniProt Q96SW2); experiment: Time-Resolved Fluorescence Resonance Energy Transfer (TR-FRET / HTRF) CRBN binding assay, displacement of Cy5-labeled thalidomide; conditions: His-CRBN-DDB1, Cy5-thalidomide 8 nM, 1 hour room temperature
CRBN-DDB1 = CRBN-DDB1 (Homo sapiens, UniProt Q96SW2); experiment: Fluorescence Polarization (FP) CRBN binding assay, probe TM-493 (FAM-BB-100); conditions: CRBN-DDB1, TM-493 probe, 60 min room temperature
Method: Fluorescence Polarization (FP) Assay
Materials: PerkinElmer EnVision 2104 Multilabel Reader, PerkinElmer FITC FP dual emission Label 2100-8060, Corning 384-well microplate #4514, V-CMR-TM-493 (FAM-BB-100), and CRBN-DDB1-180605.
Methods: Dilution buffer (50 mM HEPES-Na pH 7.5, 100 mM NaCl, 2 mM DTT, and 0.005% Tween-20) and compound DMSO dilutions were prepared. 4× compound working solutions were made with 8% DMSO (4×) and 13.8 μL/well of dilution buffer was placed in a new 96-well plate and 1.2 μL/well of above compound DMSO dilutions were added to the wells. 40 nM (4×) TM-493 in dilution buffer was prepared from a 10 μM DMSO stock and 15 μL per well of the TM-493 working solution was transferred into the compound working solution. 160 nM (2×) CRBN-DDB1 working solution was prepared with Dilution Buffer and 10 μL/well were added into a 384-well plate. 10 μL per well of the TM-493/compound mixture were transferred into the 384-well plate. The “positive control” was sample without protein and compound in 2% DMSO. After incubation at room temperature for 60 min, data was collected and read on data on an EnVision with the following setting: Excitation Light (%): 100; Measurement Height: 9.4; G-Factor: 1; Detector Gain 1: 200; Detector Gain 2: 200; Flash Number: 100. Data was processed using GraphPad Prism 7.0
The compound numbers correspond to the compound numbers in Table 1.

Chain of His-tagged CRBN-DDB1 complex (Q96SW2 whole entry): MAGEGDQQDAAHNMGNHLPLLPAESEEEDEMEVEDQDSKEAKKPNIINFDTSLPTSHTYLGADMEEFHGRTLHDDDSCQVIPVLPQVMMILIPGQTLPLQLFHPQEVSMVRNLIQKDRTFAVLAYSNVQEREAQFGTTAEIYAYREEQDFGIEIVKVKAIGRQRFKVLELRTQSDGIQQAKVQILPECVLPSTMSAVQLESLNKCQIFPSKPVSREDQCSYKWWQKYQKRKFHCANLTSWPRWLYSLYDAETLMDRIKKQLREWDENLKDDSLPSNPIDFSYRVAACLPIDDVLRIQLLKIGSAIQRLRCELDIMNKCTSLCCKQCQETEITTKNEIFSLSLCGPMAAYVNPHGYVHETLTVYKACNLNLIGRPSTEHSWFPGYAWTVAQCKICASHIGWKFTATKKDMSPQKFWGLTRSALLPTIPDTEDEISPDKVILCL
Chain of His-tagged CRBN-DDB1 complex (Q16531 whole entry partner): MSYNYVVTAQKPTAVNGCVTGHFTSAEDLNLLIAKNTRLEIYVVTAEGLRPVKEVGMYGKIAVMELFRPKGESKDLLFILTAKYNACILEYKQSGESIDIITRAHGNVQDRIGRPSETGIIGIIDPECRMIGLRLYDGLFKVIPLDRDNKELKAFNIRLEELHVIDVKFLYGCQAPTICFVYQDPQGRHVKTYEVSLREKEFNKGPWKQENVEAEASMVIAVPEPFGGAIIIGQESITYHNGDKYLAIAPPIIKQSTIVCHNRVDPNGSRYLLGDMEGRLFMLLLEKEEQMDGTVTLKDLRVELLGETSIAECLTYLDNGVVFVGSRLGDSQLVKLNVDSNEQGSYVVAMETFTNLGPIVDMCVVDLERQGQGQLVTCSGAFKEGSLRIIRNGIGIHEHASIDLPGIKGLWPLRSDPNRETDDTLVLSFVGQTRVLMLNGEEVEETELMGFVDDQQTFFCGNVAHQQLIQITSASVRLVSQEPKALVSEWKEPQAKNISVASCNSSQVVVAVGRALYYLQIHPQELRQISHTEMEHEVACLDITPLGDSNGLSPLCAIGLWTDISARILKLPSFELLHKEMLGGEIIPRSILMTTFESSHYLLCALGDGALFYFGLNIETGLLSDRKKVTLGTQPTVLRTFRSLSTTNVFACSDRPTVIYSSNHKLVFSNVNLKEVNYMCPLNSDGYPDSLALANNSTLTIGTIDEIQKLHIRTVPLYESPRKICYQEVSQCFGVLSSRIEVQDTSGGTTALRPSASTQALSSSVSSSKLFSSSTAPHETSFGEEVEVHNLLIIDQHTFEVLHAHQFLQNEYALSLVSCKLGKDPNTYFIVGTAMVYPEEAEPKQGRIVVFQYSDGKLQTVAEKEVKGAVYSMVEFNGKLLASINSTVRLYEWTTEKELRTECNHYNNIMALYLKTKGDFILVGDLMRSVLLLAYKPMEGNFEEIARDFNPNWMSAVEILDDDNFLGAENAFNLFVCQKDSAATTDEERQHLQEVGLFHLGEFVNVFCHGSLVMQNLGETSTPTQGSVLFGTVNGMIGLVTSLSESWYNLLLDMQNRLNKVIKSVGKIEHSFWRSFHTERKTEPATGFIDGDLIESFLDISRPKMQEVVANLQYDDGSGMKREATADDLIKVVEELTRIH
Chain of CRBN-DDB1 (Q96SW2 whole entry): as the sequence (Q96SW2 whole entry) above
Chain of CRBN-DDB1 (Q16531 whole entry partner): as the sequence (Q16531 whole entry partner) above

Structure (SMILES)	IC50 [1] [µM]	IC50 (CRBN-DDB1) [µM]
O=C1Cc2cc(F)ccc2C(=O)N1 [Compound I-73, 6-Fluoro-2,4-dihydroisoquinoline-1,3-dione]	10 to 30	> 100
O=C1Cc2ccc(F)cc2C(=O)N1 [Compound I-74, 7-Fluoro-2,4-dihydroisoquinoline-1,3-dione]	30 to 100	30 to 100
O=C1Cc2cccc(F)c2C(=O)N1 [Compound I-75, 8-Fluoro-2,4-dihydroisoquinoline-1,3-dione]	10 to 30	30 to 100
Nc1ccc2c(c1)CC(=O)NC2=O [Compound I-77]	10 to 30	10 to 30
Cc1cccc2c1CC(=O)NC2=O [Compound I-78]	10 to 30	> 100
Cc1ccc2c(c1)CC(=O)NC2=O [Compound I-79]	30 to 100	> 100
COc1cc(F)ccc1N1C[C@@H]2C(=O)NC(=O)[C@@H]2C1 [Compound I-124]	30 to 100	> 100
CCCOc1ccc(N2C[C@@H]3C(=O)NC(=O)[C@@H]3C2)cc1 [Compound I-132]	30 to 100	> 100
CCOC(=O)c1cccc(N2C[C@@H]3C(=O)NC(=O)[C@@H]3C2)c1 [Compound I-133]	10 to 30	> 100
O=C1NC(=O)[C@@H]2CN(c3ccc(Oc4ccccc4)cc3)C[C@H]12 [Compound I-151]	30 to 100	> 100
O=C1NC(=O)[C@@H]2CN(C3CCCC3)C[C@H]12 [Compound I-159]	> 100	> 100
Nc1ccc2c(c1)C1(CC(=O)NC1=O)NC2=O (stereo not shown) [Compound I-175]	> 100	> 100
O=C1CC2(CCc3ccccc32)C(=O)N1 (stereo not shown) [Compound I-185]	> 100	> 100
O=C1CC2(Cc3ccccc3C2)C(=O)N1 [Compound I-186, 1,3-dihydrospiro[indene-2,3′-pyrrolidine]-2′,5′-dione]	30 to 100	> 100
O=C1Cc2cccc(N3CCCCC3=O)c2C(=O)N1 [Compound I-193]	10 to 30	30 to 100
O=C1Cc2cccc(-n3ccccc3=O)c2C(=O)N1 [Compound I-194]	10 to 30	30 to 100
O=C1C[C@]2(CCc3c([N+](=O)[O-])cccc32)C(=O)N1 [Compound I-196]	> 100	> 100
O=C1C[C@@]2(CCc3c([N+](=O)[O-])cccc32)C(=O)N1 [Compound I-197]	> 100	> 100
O=C1Cc2cccc(Oc3cccc(F)c3)c2C(=O)N1 [Compound I-198, 8-(3-Fluorophenoxy)-2,4-dihydroisoquinoline-1,3-dione]	< 10	10 to 30
Cc1cccc(Oc2cccc3c2C(=O)NC(=O)C3)c1 [Compound I-199, 8-(3-Methylphenoxy)-2,4-dihydroisoquinoline-1,3-dione]	< 10	10 to 30
O=C1Cc2cccc(Oc3ccccc3F)c2C(=O)N1 [Compound I-200, 8-(2-Fluorophenoxy)-2,4-dihydroisoquinoline-1,3-dione]	< 10	< 10
O=C1Cc2cccc(Oc3ccccc3Cl)c2C(=O)N1 [Compound I-202, 8-(2-Chlorophenoxy)-2,4-dihydroisoquinoline-1,3-dione]	< 10	< 10
Cc1cc2c(c(Oc3ccccc3)c1)C(=O)NC(=O)C2 [Compound I-203, 6-Methyl-8-phenoxy-2,4-dihydroisoquinoline-1,3-dione]	< 10	< 10
CC(C)(C)OC(=O)NCCCCCCCCCc1ccccc1Oc1cccc2c1C(=O)NC(=O)C2 [Compound I-218]	> 100	> 100

Structure (SMILES)	IC50 [1] [µM]	IC50 (CRBN-DDB1) [µM]
CC(C)(C)OC(=O)NCCCc1cccc(Oc2cccc3c2C(=O)NC(=O)C3)c1 [Compound I-220]	10 to 30	30 to 100
CC(C)(C)OC(=O)NCCCC#Cc1cccc(Oc2cccc3c2C(=O)NC(=O)C3)c1 [Compound I-221]	< 10	> 100
CC(C)(C)OC(=O)NCCCCCc1cccc(Oc2cccc3c2C(=O)NC(=O)C3)c1 [Compound I-222]	30 to 100	30 to 100
CC(C)(C)OC(=O)NCCCCCC#Cc1cccc(Oc2cccc3c2C(=O)NC(=O)C3)c1 [Compound I-223]	30 to 100	30 to 100
CC(C)(C)OC(=O)NCCCCCCCc1cccc(Oc2cccc3c2C(=O)NC(=O)C3)c1 [Compound I-224]	< 10	> 100
CC(C)(C)OC(=O)NCCCCCCCC#Cc1cccc(Oc2cccc3c2C(=O)NC(=O)C3)c1 [Compound I-225]	> 100	> 100
CC(C)(C)OC(=O)NCCCCCCCCCc1cccc(Oc2cccc3c2C(=O)NC(=O)C3)c1 [Compound I-226]	> 100	> 100
CC(C)(C)OC(=O)NCCCc1ccc(Oc2cccc3c2C(=O)NC(=O)C3)cc1 [Compound I-227]	< 10	> 100
CC(C)(C)OC(=O)NCCCC#Cc1ccc(Oc2cccc3c2C(=O)NC(=O)C3)cc1 [Compound I-228]	> 100	> 100
CC(C)(C)OC(=O)NCCCCCc1ccc(Oc2cccc3c2C(=O)NC(=O)C3)cc1 [Compound I-229]	> 100	> 100
CC(C)(C)OC(=O)NCCCCCC#Cc1ccc(Oc2cccc3c2C(=O)NC(=O)C3)cc1 [Compound I-230]	> 100	> 100
CC(C)(C)OC(=O)NCCCCCCCc1ccc(Oc2cccc3c2C(=O)NC(=O)C3)cc1 [Compound I-231]	> 100	> 100
CC(C)(C)OC(=O)NCCCCCCCC#Cc1ccc(Oc2cccc3c2C(=O)NC(=O)C3)cc1 [Compound I-232]	> 100	> 100
CC(C)(C)OC(=O)NCCCCCCCCCc1ccc(Oc2cccc3c2C(=O)NC(=O)C3)cc1 [Compound I-233]	> 100	> 100
CC(C)(C)OC(=O)NCCCCCC#Cc1cccc(Oc2cccc3c2C(=O)NC(=O)C3=O)c1 [Compound I-234]	< 10	< 10
O=C1Cc2cncc(Oc3ccccc3)c2C(=O)N1 [Compound I-235]	< 10	10 to 30
O=C1Cc2nccc(Oc3ccccc3)c2C(=O)N1 [Compound I-236]	> 100	> 100
CC(C)(C)OC(=O)NCCCCCCCC#Cc1cccc(Oc2cccc3c2C(=O)NC(=O)C3=O)c1 [Compound I-237]	< 10	10 to 30
O=C1NC(=O)c2cc(Oc3ccccc3)ccc2C1=O [Compound I-238]	30 to 100	30 to 100
CC(C)(C)OC(=O)NCCCC#Cc1ccc(Oc2cccc3c2C(=O)NC(=O)C3=O)cc1 [Compound I-239]	< 10	< 10
CC(C)(C)OC(=O)NCCCCCCCC#Cc1ccc(Oc2cccc3c2C(=O)NC(=O)C3=O)cc1 [Compound I-240]	< 10	10 to 30
CC(C)(C)OC(=O)NCCCCCCCCCc1ccc(Oc2cccc3c2C(=O)NC(=O)C3=O)cc1 [Compound I-241]	< 10	30 to 100
CC(C)(C)OC(=O)NCCCCCCCC#Cc1ccccc1Oc1cccc2c1C(=O)NC(=O)C2=O [Compound I-243]	< 10	30 to 100
